Usually Kd stands for the constant that tells how readily two partners part at equilibrium.

This is an account of results in PMC5973626, “A secreted Heat shock protein 90 of Trichomonas vaginalis” (PLoS Neglected Tropical Diseases, 2018).

Format in all cases: binding
Assay [1] has as its target T1, TV910 (Grp94 ortholog, TVAG_378910) (Trichomonas vaginalis, UniProt A2DB82).
T1 construct: 6x-His tag fusion expressed in E. coli
The assay is described as follows: intrinsic tryptophan fluorescence quenching; also ATPase inhibition (IC50 […]).

Assay [2] concerns the target T2, TV560 (cytosolic Hsp90, TVAG_153560) (Trichomonas vaginalis, UniProt A2EPR1).
T2 construct: full-length, 6x-His tag fusion expressed in E. coli (721 amino acids)
Described as above.

For assay [3], the target named is T1, TV910 (Grp94 ortholog, TVAG_378910). The assay is described as follows: intrinsic tryptophan fluorescence quenching; also ATPase kinetics (KM […]).
Assay [4] concerns the target T2, TV560 (cytosolic Hsp90, TVAG_153560). The assay is described as above.

T1 sequence (A2DB82 entry or part of it): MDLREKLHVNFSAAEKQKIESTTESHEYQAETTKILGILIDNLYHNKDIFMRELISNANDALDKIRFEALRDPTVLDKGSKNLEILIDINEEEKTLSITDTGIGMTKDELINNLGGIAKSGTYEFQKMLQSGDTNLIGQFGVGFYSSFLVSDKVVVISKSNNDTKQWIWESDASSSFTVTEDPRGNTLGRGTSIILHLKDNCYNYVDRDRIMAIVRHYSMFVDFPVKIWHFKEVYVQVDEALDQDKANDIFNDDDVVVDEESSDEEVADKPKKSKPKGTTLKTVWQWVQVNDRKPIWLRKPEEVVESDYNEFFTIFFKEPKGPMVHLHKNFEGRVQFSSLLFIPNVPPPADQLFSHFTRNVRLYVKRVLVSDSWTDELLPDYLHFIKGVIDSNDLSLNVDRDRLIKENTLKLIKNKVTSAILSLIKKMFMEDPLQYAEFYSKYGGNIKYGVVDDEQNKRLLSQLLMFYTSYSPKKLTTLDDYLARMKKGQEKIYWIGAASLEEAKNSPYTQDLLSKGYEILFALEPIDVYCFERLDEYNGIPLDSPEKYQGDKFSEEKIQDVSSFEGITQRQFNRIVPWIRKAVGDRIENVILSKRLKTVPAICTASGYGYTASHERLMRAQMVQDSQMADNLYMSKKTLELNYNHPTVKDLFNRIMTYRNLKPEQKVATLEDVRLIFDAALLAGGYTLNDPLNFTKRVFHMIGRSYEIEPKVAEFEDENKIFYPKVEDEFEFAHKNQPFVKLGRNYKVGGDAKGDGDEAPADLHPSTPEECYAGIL
T2 sequence (A2EPR1 entry or part of it): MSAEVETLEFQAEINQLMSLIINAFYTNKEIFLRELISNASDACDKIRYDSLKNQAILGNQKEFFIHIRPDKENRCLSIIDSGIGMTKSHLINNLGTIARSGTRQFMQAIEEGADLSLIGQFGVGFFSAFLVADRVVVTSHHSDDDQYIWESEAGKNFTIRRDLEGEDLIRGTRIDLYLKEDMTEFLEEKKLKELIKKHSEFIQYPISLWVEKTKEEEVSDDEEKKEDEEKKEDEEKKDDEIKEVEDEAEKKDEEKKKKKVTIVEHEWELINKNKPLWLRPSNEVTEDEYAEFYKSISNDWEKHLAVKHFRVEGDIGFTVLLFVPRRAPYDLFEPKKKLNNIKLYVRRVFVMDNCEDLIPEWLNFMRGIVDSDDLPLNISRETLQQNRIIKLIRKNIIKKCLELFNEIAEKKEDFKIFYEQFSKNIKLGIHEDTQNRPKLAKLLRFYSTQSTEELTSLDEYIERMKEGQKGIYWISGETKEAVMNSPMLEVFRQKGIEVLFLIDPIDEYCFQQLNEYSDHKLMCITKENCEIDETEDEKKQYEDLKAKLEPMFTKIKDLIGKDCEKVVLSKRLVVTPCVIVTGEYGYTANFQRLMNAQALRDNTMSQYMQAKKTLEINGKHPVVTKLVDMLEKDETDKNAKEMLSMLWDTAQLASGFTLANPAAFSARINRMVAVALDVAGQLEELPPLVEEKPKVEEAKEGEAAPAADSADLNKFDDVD

On to `C=CCNC1=C2C[C@@H](C)C[C@H](OC)[C@H](O)[C@@H](C)/C=C(\C)[C@H](OC(N)=O)[C@@H](OC)/C=C\C=C(/C)C(=O)NC(=CC1=O)C2=O` [17-AAG], for which the Kd in assay [1] is 15.7 µM; in assay [2], 11.5 µM.

On to `Nc1ncnc2c1ncn2[C@@H]1O[C@H](COP(=O)(O)OP(=O)(O)OP(=O)(O)O)[C@@H](O)[C@H]1O` [ATP], for which the results for the Kd in assay [3] and in assay [4] were 722 µM and 538 µM, respectively.
